The supplement of paper PMC13380429
± gives the standard deviation of the averaged measurements.

Tests used:
Settings in all cases: 72 h
Caco-2 [1] = test: relative viability EC50 (midpoint between 100% and the lowest measured viability); higher = less toxic
Calu-3 [2] = test: as above
Vero E6 [3] = test: as above
Caco-2 [4] = test: cell viability relative to DMSO; higher = less toxic
Calu-3 [5] = test: as above
Vero E6 [6] = test: as above
Caco-2 [7] = test: drug sensitivity score (DSS) for viability; higher = more toxic; extreme values may be limits of the assay
Calu-3 [8] = test: as above
Vero E6 [9] = test: as above
HepG2 [10] = test: as above
U2OS [11] = test: as above
U2OS [12] = test: relative viability EC50 (midpoint between 100% and the lowest measured viability); higher = less toxic
HepG2 [13] = test: cell viability relative to DMSO; higher = less toxic
U2OS [14] = test: as above

Row | Compound | relative viability EC50 (Caco-2 [1]) [µM] | relative viability EC50 (Calu-3 [2]) [µM] | relative viability EC50 (Vero E6 [3]) [µM] | cell viability (Caco-2 [4]; 1 nM) [%] | cell viability (Caco-2 [4]; 10 nM) [%] | cell viability (Caco-2 [4]; 100 nM) [%] | cell viability (Caco-2 [4]; 1000 nM) [%] | cell viability (Caco-2 [4]; 10000 nM) [%] | cell viability (Calu-3 [5]; 1 nM) [%] | cell viability (Calu-3 [5]; 10 nM) [%] | cell viability (Calu-3 [5]; 100 nM) [%] | cell viability (Calu-3 [5]; 1000 nM) [%] | cell viability (Calu-3 [5]; 10000 nM) [%] | cell viability (Vero E6 [6]; 1 nM) [%] | cell viability (Vero E6 [6]; 10 nM) [%] | cell viability (Vero E6 [6]; 100 nM) [%] | cell viability (Vero E6 [6]; 1000 nM) [%] | cell viability (Vero E6 [6]; 10000 nM) [%] | drug sensitivity score (Caco-2 [7]) | drug sensitivity score (Calu-3 [8]) | drug sensitivity score (Vero E6 [9]) | drug sensitivity score (HepG2 [10]) | drug sensitivity score (U2OS [11]) | relative viability EC50 (U2OS [12]) [µM] | cell viability (HepG2 [13]; 1 nM) [%] | cell viability (HepG2 [13]; 10 nM) [%] | cell viability (HepG2 [13]; 100 nM) [%] | cell viability (HepG2 [13]; 1000 nM) [%] | cell viability (HepG2 [13]; 10000 nM) [%] | cell viability (U2OS [14]; 1 nM) [%] | cell viability (U2OS [14]; 10 nM) [%] | cell viability (U2OS [14]; 100 nM) [%] | cell viability (U2OS [14]; 1000 nM) [%] | cell viability (U2OS [14]; 10000 nM) [%]
1 | CCN1CCN(C(=O)N[C@@H](C(=O)N[C@@H]2C(=O)N3C(C(=O)O)=C(CSc4nnnn4C)CS[C@H]23)c2ccc(O)cc2)C(=O)C1=O [cefoperazone] | > 10 | > 10 | > 10 | 98.5 | 107 | 102 | 100 | 99.6 | 89.8 | 101 | 97 | 97.1 | 102 | 96.7 | 104 | 99.5 | 106 | 98.4 | 0 | 0 | 0 |  |  |  |  |  |  |  |  |  |  |  |  | 
2 | O=C(/C=C/c1ccc(O)c(O)c1)O[C@@H]1C[C@](O)(C(=O)O)C[C@@H](O)[C@H]1O [chlorogenic-acid] |  |  |  |  |  |  |  |  |  |  |  |  |  |  |  |  |  |  |  | 0 | 0 | 0 | 0 |  |  |  |  |  |  |  |  |  |  | 
3 | C[C@H]1[C@H](C)CC[C@]2(C(=O)O)CC[C@]3(C)C(=CC[C@@H]4[C@@]5(C)C[C@@H](O)[C@H](O)C(C)(C)[C@@H]5CC[C@]43C)[C@H]12 [corosolic-acid] | > 10 | > 10 | > 10 | 107 | 110 | 102 | 108 | 99.6 | 96.8 | 106 | 103 | 95.3 | 99.8 | 101 | 104 | 99.7 | 104 | 103 | 0 | 0 | 0 |  |  |  |  |  |  |  |  |  |  |  |  | 
4 | C=C1C[C@@]2(O)O[C@@]3(C[C@H]2C(C)C)[C@@H](C)CC[C@@H]13 [curcumol] | > 10 | > 10 | > 10 | 108 | 95.3 | 93.6 | 97.3 | 103 | 96.4 | 107 | 111 | 101 | 106 | 100 | 101 | 97.1 | 91.9 | 102 | 0 | 0 | 0 |  |  |  |  |  |  |  |  |  |  |  |  | 
5 | Oc1ccc(OC2CCCCO2)cc1 (stereo unspecified) [deoxyarbutin] | > 10 | > 10 |  | 89.2 | 99.1 | 99.1 | 97.3 | 104 | 98.1 | 98.2 | 97.4 | 110 | 92.9 |  |  |  |  |  | 0 | 0 |  |  |  |  |  |  |  |  |  |  |  |  |  | 
6 | CCOc1ccc(Cc2nccc3cc(OCC)c(OCC)cc23)cc1OCC [ethaverine] | > 10 |  | > 10 | 89.5 | 87.4 | 90.3 | 82.9 | 77.3 | 98.8 | 100 | 101 | 105 | 69.3 | 116 | 90.6 | 103 | 95.2 | 90.9 | 3.6 | 1.1 | 0 | 5.1 | 0.3 | > 10 | 86.2 | 91.2 | 105 | 76.5 | 57.3 | 93.3 | 106 | 95.4 | 96.6 | 86.1
7 | COc1cc(/C=C/C(=O)O)ccc1O [ferulic-acid] | > 10 | > 10 | > 10 | 99 | 97.8 | 96.4 | 92.2 | 103 | 93.8 | 98.6 | 103 | 95.6 | 94.2 | 94 | 107 | 94.5 | 96.2 | 107 | 0 | 0 | 0 |  | 0 | > 10 |  |  |  |  |  | 97.8 | 102 | 99.9 | 99.3 | 101
8 | C/C=C(/C)C(=O)O[C@H]1C(C)=C[C@]23C(=O)[C@@H](C=C(CO)[C@@H](O)[C@]12O)[C@H]1[C@@H](C[C@H]3C)C1(C)C [ingenol-mebutate] | > 10 | > 10 |  | 109 | 110 | 89.8 | 81.8 | 84.6 | 117 | 110 | 96.6 | 102 | 105 | 99.2 | 83.9 | 54.7 | 53 | 51.7 | 3.2 | 0 | 16.5 | 12 | 0.8 | > 10 | 102 | 86.4 | 66.4 | 70.7 | 77.7 | 101 | 88.5 | 75.2 | 89.1 | 93.4
9 | O=C(O)c1nn(Cc2ccc(Cl)cc2Cl)c2ccccc12 [lonidamine] | > 10 | > 10 | > 10 | 95.3 | 107 | 94.1 | 105 | 96.4 | 98.5 | 96.2 | 89.8 | 101 | 116 | 98.8 | 102 | 102 | 95.8 | 95.8 | 0 | 0 | 0 |  | 0 | > 10 |  |  |  |  |  | 100 | 110 | 98 | 111 | 98
10 | CC1COc2c(N3CCN(C)CC3)c(F)cc3c(=O)c(C(=O)O)cn1c23 (stereo unspecified) [ofloxacin] |  |  |  |  |  |  |  |  |  |  |  |  |  |  |  |  |  |  |  | 0 | 0 | 0.85 ± 1.2 | 0 |  |  |  |  |  |  |  |  |  |  | 
11 | COc1ccc(C(C)=O)c(O)c1 [paeonol] | > 10 | > 10 | > 10 | 96.6 | 96 | 103 | 96.5 | 110 | 95.6 | 95.9 | 91.2 | 99.8 | 105 | 95.4 | 98.7 | 96.9 | 94.1 | 106 | 0 | 0 | 0 |  | 0 | > 10 |  |  |  |  |  | 95 | 96.8 | 95.8 | 95.8 | 97.7
12 | NC(=S)N/N=C/c1ccncc1 [perchlozone] | > 10 | > 10 | > 10 | 97.2 | 100 | 91.1 | 106 | 92.6 | 104 | 100 | 105 | 95.6 | 100 | 93.9 | 98.9 | 93.7 | 99.2 | 108 | 0 | 0 | 0 |  | 0 | > 10 |  |  |  |  |  | 102 | 98.4 | 101 | 104 | 106
13 | CC(=O)O[C@H]1CC[C@@]2(C)C(=CC[C@@H]3[C@@H]2CC[C@]2(C)C(=O)CC[C@@H]32)C1 [prasterone-acetate] |  |  |  |  |  |  |  |  |  |  |  |  |  |  |  |  |  |  |  | 0 | 0 | 0 | 0 |  |  |  |  |  |  |  |  |  |  | 
14 | O=C1c2ccccc2-c2n[nH]c3cccc1c23 [pyrazolanthrone] | > 10 | > 10 | > 10 | 111 | 92.3 | 99.4 | 102 | 97.9 | 94.9 | 95.7 | 92.4 | 100 | 98.6 | 94.7 | 102 | 99.8 | 106 | 105 | 0 | 0 | 0 | 3.3 |  |  | 101 | 80.2 | 96.8 | 82.4 | 71.5 |  |  |  |  | 
15 | CN1CCN(CCOc2cc(OC3CCOCC3)c3c(Nc4c(Cl)ccc5c4OCO5)ncnc3c2)CC1 [saracatinib] |  | 0.7 | 1.37 | 107 | 102 | 102 | 84.4 | 63.8 | 87.7 | 116 | 95 | 42.3 | 9.6 | 97.5 | 97.1 | 102 | 75.2 | 21 | 3.8 | 12 | 8 | 3.3 | 5.2 | 1.09 | 100 | 101 | 107 | 80.2 | 72.1 | 98.6 | 102 | 88.8 | 78.9 | 47.5
16 | Cc1cc(NS(=O)(=O)c2ccc(N)cc2)no1 [sulfamethoxazole] |  |  |  |  |  |  |  |  |  |  |  |  |  |  |  |  |  |  |  | 0 |  | 0 | 0 |  |  |  |  |  |  |  |  |  |  | 
17 | CCC(CC)C(c1ccc(Nc2nc3ccccc3s2)cc1)n1cncn1 (stereo unspecified) [talarozole] |  | > 10 | > 10 | 94.1 | 104 | 96 | 103 | 67.8 | 100 | 104 | 103 | 109 | 104 | 108 | 101 | 99.3 | 99.1 | 105 | 1.2 | 0 | 0 | 1.6 | 0 | > 10 | 92.3 | 92.5 | 104 | 102 | 63.7 | 104 | 104 | 101 | 102 | 93.3
18 | Cn1ncnc1[C@H]1c2n[nH]c(=O)c3cc(F)cc(c23)N[C@@H]1c1ccc(F)cc1 [talazoparib] | > 10 |  |  | 105 | 96.3 | 93.7 | 82.7 | 85.9 | 105 | 84.3 | 93.3 | 68.9 | 58.2 | 95.1 | 97.6 | 77.6 | 66.3 | 54.5 | 2.1 | 6.3 | 8.7 | 8.5 |  |  | 98.8 | 89.3 | 77.3 | 71.4 | 50.1 |  |  |  |  | 
19 | CN1CCN(CCCN2c3ccccc3Sc3ccc(C(F)(F)F)cc32)CC1 [trifluoperazine] | > 10 |  | > 10 | 92 | 86.1 | 84.3 | 82.6 | 83 | 103 | 99.3 | 102 | 101 | 72.2 | 95.5 | 103 | 105 | 88.7 | 76.2 | 4.6 | 1 | 2.2 | 3.5 | 0.4 | > 10 | 106 | 89.7 | 98 | 92 | 56.6 | 97.4 | 100 | 101 | 98 | 85.5
